Test results as given in PubChem BioAssay AID1918958 (Molecular Pharmacology Branch, DTP, NCI, 2023).

Tested on: NCI-H196 complex spheroid viability
Assay: Anticancer human tumor NCI-H196 cell line growth inhibition [LSD1];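 further: spheroids exposed to agents for 7 days before readout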;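 on viability, T/C: 100% = DMSO vehicle control viability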
Conditions: for IC50: curve of first compound; for viability, T/C: stronger effect = lower value
Summary of the method: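 Complex spheroids of tumor cells with HUVEC and human MSCs, exposed to iadademstat combined with other agents. Each agent tested in half-log steps from near clinical Cmax (else 10 microM top), DMSO ≤0.25%.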

[1] = second compound 0.1 µM, first compound 0.00949 µM
[2] = second compound 0.1 µM, first compound 0.03 µM
[3] = second compound 0.1 µM, first compound 0.0949 µM
[4] = second compound 0.1 µM, first compound 0.3 µM
[5] = second compound 0.1 µM, first compound 0.949 µM
[6] = second compound 0.1 µM, first compound 3 µM
[7] = second compound 0.316 µM, first compound 0.00949 µM
[8] = second compound 0.316 µM, first compound 0.03 µM
[9] = second compound 0.316 µM, first compound 0.0949 µM
[10] = second compound 0.316 µM, first compound 0.3 µM
[11] = second compound 0.316 µM, first compound 0.949 µM
[12] = second compound 0.316 µM, first compound 3 µM
[13] = second compound 1 µM, first compound 0.00949 µM
[14] = second compound 1 µM, first compound 0.03 µM
[15] = second compound 1 µM, first compound 0.0949 µM
[16] = second compound 1 µM, first compound 0.3 µM
[17] = second compound 1 µM, first compound 0.949 µM
[18] = second compound 1 µM, first compound 3 µM
[19] = second compound 3.16 µM, first compound 0.00949 µM
[20] = second compound 3.16 µM, first compound 0.03 µM
[21] = second compound 3.16 µM, first compound 0.0949 µM
[22] = second compound 3.16 µM, first compound 0.3 µM
[23] = second compound 3.16 µM, first compound 0.949 µM
[24] = second compound 3.16 µM, first compound 3 µM
[25] = second compound 10 µM, first compound 0.00949 µM
[26] = second compound 10 µM, first compound 0.03 µM
[27] = second compound 10 µM, first compound 0.0949 µM
[28] = second compound 10 µM, first compound 0.3 µM
[29] = second compound 10 µM, first compound 0.949 µM
[30] = second compound 10 µM, first compound 3 µM

For `NS(=O)(=O)OCC1CC(n2ccc3c(NC4CCc5ccccc54)ncnc32)CC1O` (stereo not given) + NC1CC1c1ccc(-c2cccc(O)c2)cc1, the IC50 (second compound 0.1 µM) was > 3000 nM, the IC50 (second compound 0.316 µM) was > 3000 nM and the IC50 (second compound 1 µM) was > 3000 nM. For the same compound, the IC50 (second compound 3.16 µM) was > 3000 nM, the IC50 (second compound 10 µM) was > 3000 nM and the viability, T/C [1] was 83.6%. For the same compound, the viability, T/C [2] was 103%, the viability, T/C [3] was 68% and the viability, T/C [4] was 82.2%. The viability, T/C [5] was 75.1%, the viability, T/C [6] was 57.5% and the viability, T/C [7] was 77.8%. The viability, T/C [8] was 99.8%, the viability, T/C [9] was 69.7% and the viability, T/C [10] was 80.5%. It also gave a viability, T/C [11] of 79.7%, a viability, T/C [12] of 60.7% and a viability, T/C [13] of 72.3%. For the same compound, the viability, T/C [14] was 83.9%, the viability, T/C [15] was 66.2% and the viability, T/C [16] was 72%. The viability, T/C [17] was 66%, the viability, T/C [18] was 63.6% and the viability, T/C [19] was 71.6%. It also gave a viability, T/C [20] of 68.1%, a viability, T/C [21] of 64.3% and a viability, T/C [22] of 68.7%. For the same compound, the viability, T/C [23] was 56%, the viability, T/C [24] was 64.3% and the viability, T/C [25] was 64.4%. The viability, T/C [26] was 87.9%, the viability, T/C [27] was 58.6% and the viability, T/C [28] was 65.8%. The viability, T/C [29] was 63% and the viability, T/C [30] was 57%.

`Nc1ccccc1NC(=O)c1ccc(CNC(=O)OCc2cccnc2)cc1` + NC1CC1c1ccc(-c2cccc(O)c2)cc1 was tested, and the IC50 (second compound 0.1 µM) was 57.8 nM, the IC50 (second compound 0.316 µM) was 63 nM and the IC50 (second compound 1 µM) was 63.6 nM. It also gave an IC50 (second compound 3.16 µM) of 67.7 nM, an IC50 (second compound 10 µM) of 104 nM and a viability, T/C [1] of 77.6%. The viability, T/C [2] was 66.3%, the viability, T/C [3] was 37.7% and the viability, T/C [4] was 5.54%. The viability, T/C [5] was 0.32%, the viability, T/C [6] was 0.4% and the viability, T/C [7] was 78.8%. It also gave a viability, T/C [8] of 65.5%, a viability, T/C [9] of 42% and a viability, T/C [10] of 7.37%. It also gave a viability, T/C [11] of 0.32%, a viability, T/C [12] of 0.32% and a viability, T/C [13] of 80.2%. For the same compound, the viability, T/C [14] was 63.9%, the viability, T/C [15] was 43.9% and the viability, T/C [16] was 8.12%. The viability, T/C [17] was 1.9%, the viability, T/C [18] was 0.59% and the viability, T/C [19] was 79.5%. It also gave a viability, T/C [20] of 70.1%, a viability, T/C [21] of 41.9% and a viability, T/C [22] of 7.06%. For the same compound, the viability, T/C [23] was 0.28%, the viability, T/C [24] was 0.39% and the viability, T/C [25] was 82.2%. For the same compound, the viability, T/C [26] was 70.6%, the viability, T/C [27] was 55% and the viability, T/C [28] was 10.2%. For the same compound, the viability, T/C [29] was 0.92% and the viability, T/C [30] was 0.55%.

For `O=C(C=Cc1cccc(S(=O)(=O)Nc2ccccc2)c1)NO` + NC1CC1c1ccc(-c2cccc(O)c2)cc1, the IC50 (second compound 0.1 µM) was 138 nM, the IC50 (second compound 0.316 µM) was 129 nM and the IC50 (second compound 1 µM) was 149 nM. It also gave an IC50 (second compound 3.16 µM) of 137 nM, an IC50 (second compound 10 µM) of 152 nM and a viability, T/C [1] of 106%. The viability, T/C [2] was 91.2%, the viability, T/C [3] was 70.3% and the viability, T/C [4] was 9.6%. For the same compound, the viability, T/C [5] was 0.22%, the viability, T/C [6] was 0.32% and the viability, T/C [7] was 96.7%. For the same compound, the viability, T/C [8] was 92.6%, the viability, T/C [9] was 64.3% and the viability, T/C [10] was 10.6%. The viability, T/C [11] was 0.24%, the viability, T/C [12] was 0.42% and the viability, T/C [13] was 112%. The viability, T/C [14] was 89.5%, the viability, T/C [15] was 75.1% and the viability, T/C [16] was 13.9%. For the same compound, the viability, T/C [17] was 1.06%, the viability, T/C [18] was 0.34% and the viability, T/C [19] was 101%. The viability, T/C [20] was 101%, the viability, T/C [21] was 68.6% and the viability, T/C [22] was 10%. It also gave a viability, T/C [23] of 1.82%, a viability, T/C [24] of 0.33% and a viability, T/C [25] of 115%. It also gave a viability, T/C [26] of 92.6%, a viability, T/C [27] of 76.3% and a viability, T/C [28] of 14.5%. The viability, T/C [29] was 0.36% and the viability, T/C [30] was 0.36%.
